Reference: US8163909B2, “Substituted hydroxyethyl amine compounds as beta-secretase modulators and methods of use” (Amgen Inc., priority 2007, dated 2012)
Read-outs that look alike come from different tables or passages of the source.

How the values were obtained:
CYP2D6 = CYP2D6 (Homo sapiens, UniProt P10635); assay: CYP2D6 inhibition assay (bufuralol, pooled human liver microsomes)
[1] = Microsomal stability assay, rat liver microsomes;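 also: rat liver microsomes (0.25 mg/mL) with about 1 µM compound plus 1 mM NADPH, pH 7.4, 37 °C for 30 min, parent left measured by LC-MS/MS against 0 min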
CYP3A4 (CYP3A) = CYP3A4 (CYP3A) (Homo sapiens, UniProt P08684); assay: in vitro; details: microsomes, pH 7.4;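 also: inhibition of CYP3A-mediated 1-hydroxymidazolam formation after 10 min incubation with NADPH, quantified by HPLC MS relative to metabolite produced without test compound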
Sequence of CYP3A4 (CYP3A) (P08684 2-503): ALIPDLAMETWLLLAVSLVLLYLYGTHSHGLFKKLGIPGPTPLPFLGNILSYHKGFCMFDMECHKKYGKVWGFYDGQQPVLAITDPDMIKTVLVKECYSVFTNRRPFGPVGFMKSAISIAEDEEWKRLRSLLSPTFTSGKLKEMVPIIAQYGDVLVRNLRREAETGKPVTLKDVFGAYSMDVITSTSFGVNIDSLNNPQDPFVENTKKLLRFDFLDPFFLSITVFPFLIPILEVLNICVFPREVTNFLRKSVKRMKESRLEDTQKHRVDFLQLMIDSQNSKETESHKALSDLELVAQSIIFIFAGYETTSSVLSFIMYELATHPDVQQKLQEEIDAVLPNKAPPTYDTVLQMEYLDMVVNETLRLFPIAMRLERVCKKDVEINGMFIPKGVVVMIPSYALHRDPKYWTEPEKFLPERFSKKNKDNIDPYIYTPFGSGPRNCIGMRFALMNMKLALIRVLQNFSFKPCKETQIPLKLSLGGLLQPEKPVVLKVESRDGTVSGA

[2] = tested on: Aβ40 in conditioned medium of cells stably expressing Amyloid Precursor Protein (APP); assay: In vitro BACE cell-based assay (Aβ40 in conditioned medium, sandwich ELISA); details: Homo sapiens;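 also: compounds added as a dilution series, secreted peptide quantified by europium time-resolved fluorescence readout, potency fitted from percent of control versus compound concentration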
[3] = Microsomal stability assay, human liver microsomes;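 also: pooled human liver microsomes at 0.25 mg/mL with 1 µM compound and NADPH at 37 °C, pH 7.4, for 30 min, unchanged parent quantified by LC-MS/MS against the 0 min sample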
[4] = molecular target: Beta Secretase enzyme (BACE) (Homo sapiens, UniProt P56817); assay: In vitro enzymatic BACE FRET (fluorescence resonance energy transfer) assay; assay type: biochemical;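 also: fluorescence read after 1 h with 50 nM quenched peptide substrate spanning the BACE cleavage site, in pH 4.2 acetate buffer containing 10% DMSO and nonionic detergent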
Sequence of Beta Secretase enzyme (BACE) (P56817 46-501): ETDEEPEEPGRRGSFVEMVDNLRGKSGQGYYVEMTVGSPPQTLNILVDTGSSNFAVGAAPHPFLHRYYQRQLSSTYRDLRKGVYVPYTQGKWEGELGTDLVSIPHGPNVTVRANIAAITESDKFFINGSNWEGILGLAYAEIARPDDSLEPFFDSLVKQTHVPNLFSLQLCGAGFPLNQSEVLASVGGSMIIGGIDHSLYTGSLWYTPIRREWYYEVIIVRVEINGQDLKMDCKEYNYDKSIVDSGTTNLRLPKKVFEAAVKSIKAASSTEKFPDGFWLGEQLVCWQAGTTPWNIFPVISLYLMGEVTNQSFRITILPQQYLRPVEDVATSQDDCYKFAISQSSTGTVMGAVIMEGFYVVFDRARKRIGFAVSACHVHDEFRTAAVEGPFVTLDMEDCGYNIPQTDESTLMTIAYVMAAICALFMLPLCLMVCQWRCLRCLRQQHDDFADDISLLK

[5] = 2D6 IC50 (uM), CYP2D6 inhibition
[6] = HEK293, HEK cell-based assay IC50, read-out: HEK cell assay
[7] = BACE enzyme assay IC50, read-out: BACE1 FRET assay
[8] = 2D6 IC50 (uM), CYP enzyme inhibition
[9] = HEK293, HEK cells, read-out: HEK cell assay
[10] = BACE enzyme assay, read-out: BACE1 FRET assay
[11] = HEK293, HEK cell-based assay, IC50's in uM, read-out: HEK cell assay
[12] = BACE enzyme assay, IC50's in uM, read-out: BACE1 FRET assay
[13] = 2D6 IC50, CYP enzyme inhibition
[14] = HEK293, cell-based assay, HEK cells, IC50's in uM, read-out: HEK cell assay
[15] = HEK293, Table 2, HEK cells, read-out: HEK cell assay
[16] = Table 2, read-out: BACE1 FRET assay
[17] = HEK293, HEK cells, read-out: HEK cell assay (IC50)
[18] = read-out: BACE1 FRET assay (IC50)

Sequence of CYP2D6 (P10635 whole entry): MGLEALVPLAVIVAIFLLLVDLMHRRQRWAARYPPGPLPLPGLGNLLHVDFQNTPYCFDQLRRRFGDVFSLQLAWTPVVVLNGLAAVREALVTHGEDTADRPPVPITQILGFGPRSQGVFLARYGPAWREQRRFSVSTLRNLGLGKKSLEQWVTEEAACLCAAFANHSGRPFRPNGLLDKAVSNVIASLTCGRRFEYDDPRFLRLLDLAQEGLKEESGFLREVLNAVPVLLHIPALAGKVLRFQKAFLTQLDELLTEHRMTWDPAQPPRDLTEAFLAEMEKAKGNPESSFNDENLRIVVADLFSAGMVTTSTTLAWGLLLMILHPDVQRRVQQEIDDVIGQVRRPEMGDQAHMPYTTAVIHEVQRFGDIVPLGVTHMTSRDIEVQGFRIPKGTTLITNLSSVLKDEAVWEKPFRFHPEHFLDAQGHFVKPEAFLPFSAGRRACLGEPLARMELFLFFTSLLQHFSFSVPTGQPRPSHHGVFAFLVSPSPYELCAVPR

SMILES	RLM ([1]; rat liver microsomes)	IC50 (CYP3A4 (CYP3A))	HLM ([3]; human liver microsomes)	IC50 (CYP2D6; [8])	RLM ([1]; rat liver microsomal data)	IC50 [2, 9]	HLM ([3]; human liver microsomal data)	IC50 [4, 10]	also measured
COCC(=O)N[C@H](Cc1cccc(-c2nccs2)c1)[C@@H](O)CN[C@H]1CC2(CCC2)Oc2ccc(CC(C)(C)C)cc21 [compound 701, N-((1R,2S)-3-(((4S)-6-(2,2-dimethylpropyl)-3,4-dihydrospiro[chromene-2,1′-cyclobutan]-4-yl)amino)-2-hydroxy-1-(3-(1,3-thiazol-2-yl)benzyl)propyl)-2-methoxyacetamide]	160 µL/min/mg	200 nM	137 µL/min/mg						IC50 (CYP2D6; [5]): 0.7 µM; IC50 [2, 6]: 0.033 µM; IC50 [4, 7]: 0.008 µM
COCC(=O)N[C@@H](Cc1ccc(F)cc1)[C@H](O)CN[C@H]1CC2(CCC2)Oc2c(-c3cnc[nH]3)cc(CC(C)C)cc21 [compound 513]		200 nM		2.5 µM	82 µL/min/mg	0.013 µM	143 µL/min/mg	0.088 µM	
CC#Cc1cccc(C[C@H](NC(=O)COC)[C@H](O)CN[C@H]2CC3(CCC3)Oc3ncc(CC(C)C)cc32)c1 [compound 802]		100 nM		2.15 µM	191 µL/min/mg		60.5 µL/min/mg		IC50 [2, 11]: 0.032 µM; IC50 [4, 12]: 0.005 µM
COCC(=O)N[C@@H](Cc1cccc(F)c1)[C@H](O)CN[C@H]1CC2(CCC2)Oc2c1cc([C@H](n1ccnc1)C(C)(C)C)cc2-n1ccnc1 [compound 563]		100 nM		0.4 µM	40 µL/min/mg	> 10 µM	40 µL/min/mg	12 µM	
CO[C@H](C)C(=O)N[C@@H](Cc1cc(F)cc(-c2nccs2)c1)[C@H](O)CN[C@H]1CC2(CCC2)Oc2ncc(Br)cc21 [compound 852]		300 nM			156 µL/min/mg		106 µL/min/mg		IC50 (CYP2D6; [13]): 0.3 µM; IC50 [2, 14]: 0.094 µM; IC50 [4, 12]: 0.246 µM
COCC(=O)N[C@@H](Cc1cc(F)cc(F)c1)[C@H](O)CN[C@H]1CC2(CCC2)Oc2c(Br)cc(CC(C)(C)C)cc21 [compound 464]		1500 nM			364 µL/min/mg		463 µL/min/mg		IC50 (CYP2D6; [13]): 11.5 µM; IC50 [2, 15]: 0.091 µM; IC50 [4, 16]: 0.004 µM
CO[C@H](C)C(=O)N[C@@H](Cc1cc(F)cc(F)c1)[C@H](O)CN[C@H]1CC2(CCC2)Oc2c1cc(CC(C)C)nc2Cl [compound 686]	399 µL/min/mg	200 nM	921 µL/min/mg						IC50 (CYP2D6; [5]): 6.1 µM; IC50 [2, 6]: 0.052 µM; IC50 [4, 7]: 0.003 µM
COCC(=O)N[C@@H](Cc1cccc([C@@H]2CCCO2)c1)[C@H](O)CN[C@H]1CC2(CCC2)Oc2ncc(CC(C)(C)C)cc21 [compound 915]		600 nM			590 µL/min/mg		921 µL/min/mg		IC50 (CYP2D6; [13]): 6.8 µM; IC50 [2, 14]: 0.562 µM; IC50 [4, 12]: 1.96 µM
CO[C@H](C)C(=O)N[C@@H](Cc1cccc(F)c1)[C@H](O)CN[C@H]1CC2(CCC2)Oc2c1cc(CC(C)(C)C)cc2-n1ccnc1 [compound 522]		100 nM		3.1 µM	141 µL/min/mg	0.013 µM	43 µL/min/mg	0.044 µM	
COCC(=O)N[C@@H](Cc1ccccc1)[C@H](O)CN[C@H]1CC2(CCC2)Oc2ccc(C[C@H](C)F)cc21 [compound 611]	775 µL/min/mg	18400 nM	644 µL/min/mg						IC50 (CYP2D6; 2D6 IC50, CYP2D6 inhibition): 1.2 µM; IC50 [2, 17]: 0.116 µM; IC50 [4, 18]: 0.103 µM
CC(=O)N[C@@H](Cc1cc(F)cc(F)c1)[C@H](O)CN[C@H]1CC2(CCC2)Oc2c1cc(CC(C)(C)C)nc2-c1cncs1 [compound 481]		200 nM			177 µL/min/mg		155 µL/min/mg		IC50 (CYP2D6; [13]): 7.9 µM; IC50 [2, 15]: 0.123 µM; IC50 [4, 16]: 0.004 µM
CC(=O)N[C@@H](Cc1cc(F)cc(-c2ccncc2)c1)[C@H](O)CN[C@H]1CC2(CCC2)Oc2ccc(CC(C)(C)C)cc21 [Example 433, N-((2S,3R)-4-((S)-2,2-spirocyclobutyl-6-neopentyl-3,4-dihydro-2H-chromen-4-ylamino)-1-(3-fluoro-5-(pyridin-4-yl)phenyl)-3-hydroxybutan-2-yl)acetamide]	590 µL/min/mg	1100 nM	492 µL/min/mg						IC50 (CYP2D6; 2D6 IC50, CYP2D6 inhibition): 0.2 µM; IC50 [2, 17]: 0.038 µM; IC50 [4, 18]: 0.021 µM
COCC(=O)N[C@@H](Cc1cc(F)cc(F)c1)[C@H](O)CN[C@H]1CC2(CCC2)Oc2c(-c3cncn3C)cc(CC(C)C)cc21 [compound 631]	209 µL/min/mg	100 nM	36 µL/min/mg						IC50 (CYP2D6; 2D6 IC50, CYP2D6 inhibition): 3.9 µM; IC50 [2, 17]: 0.004 µM; IC50 [4, 18]: 0.019 µM
CC(=O)N[C@@H](Cc1cc2c(c(-c3ccncc3)c1)OCO2)[C@H](O)CN[C@H]1CC2(CCC2)Oc2ncc(CC(C)(C)C)cc21 [compound 645]	62 µL/min/mg	100 nM	451 µL/min/mg						IC50 (CYP2D6; 2D6 IC50, CYP2D6 inhibition): 0.3 µM; IC50 [2, 17]: 0.406 µM; IC50 [4, 18]: 0.441 µM
COCC(=O)N[C@@H](Cc1cccc(F)c1)[C@H](O)CN[C@@H]1CC2(CCC2)Oc2c1cc(CC(C)(C)C)nc2-n1ccnc1 [compound 502]		100 nM		0.8 µM	158 µL/min/mg	1.85 µM	54 µL/min/mg	2 µM	
CO[C@H](C)C(=O)N[C@@H](Cc1ccc2c(c1)OCO2)[C@H](O)CN[C@H]1CC2(CCC2)Oc2c1cc(CC(C)C)nc2-c1ccncc1 [compound 670]	100 µL/min/mg	≤ 30 nM	40 µL/min/mg						IC50 (CYP2D6; [5]): 0.8 µM; IC50 [2, 6]: 0.294 µM; IC50 [4, 7]: 0.06 µM
COC(OC)C(=O)N[C@@H](Cc1cccc(F)c1)[C@H](O)CN[C@H]1CC2(CCC2)Oc2ncc(CC(C)(F)F)cc21 [compound 797]		1400 nM		4.1 µM	199 µL/min/mg		256 µL/min/mg		IC50 [2, 11]: 0.017 µM; IC50 [4, 12]: 0.008 µM
CO[C@H](C)C(=O)N[C@@H](Cc1cc(F)cc(F)c1)[C@H](O)CN[C@H]1CC2(CCC2)Oc2c(-c3cncs3)cc(CC(C)C)cc21 [compound 491]		200 nM		6.2 µM	285 µL/min/mg	0.036 µM	345 µL/min/mg	0.004 µM	
CC(C)(C)Cc1cnc2c(c1)[C@@H](NC[C@@H](O)[C@H](Cc1cccc(C#N)c1)NC(=O)[C@H]1CCCO1)CC1(CC(F)(F)C1)O2 [compound 472]		800 nM			775 µL/min/mg		736 µL/min/mg		IC50 (CYP2D6; [13]): 7.1 µM; IC50 [2, 15]: 0.015 µM; IC50 [4, 16]: 0.005 µM
COCC(=O)N[C@@H](Cc1cc(F)cc(F)c1)[C@H](O)CN[C@H]1CC2(CCC2)Oc2c1cc(CC(C)(C)C)nc2Nc1ccccc1 [compound 599]	125 µL/min/mg	6400 nM	120 µL/min/mg						IC50 (CYP2D6; 2D6 IC50, CYP2D6 inhibition): ≥ 27 µM; IC50 [2, 17]: 0.395 µM; IC50 [4, 18]: 0.018 µM
CC[C@H](OC)C(=O)N[C@@H](Cc1ccc(F)cc1)[C@H](O)CN[C@H]1CC2(CCC2)Oc2ncc(CC(C)(C)C)cc21 [compound 572]		200 nM		8.1 µM	569 µL/min/mg	0.094 µM	290 µL/min/mg	0.102 µM	
CO[C@H](C)C(=O)N[C@@H](Cc1ccc2c(c1)OCO2)[C@H](O)CN[C@H]1CC2(CCC2)Oc2ncc(CC(F)(F)F)cc21 [compound 519]		300 nM		7.4 µM	71 µL/min/mg	0.81 µM	33 µL/min/mg	0.255 µM	
CCOCC(=O)N[C@@H](Cc1cccc(-c2ncco2)c1)[C@H](O)CN[C@H]1CC2(CCC2)Oc2ncc(CC(C)(C)C)cc21 [compound 901]		≥ 27000 nM			62 µL/min/mg		74 µL/min/mg		IC50 (CYP2D6; [13]): 24.8 µM; IC50 [2, 14]: 0.032 µM; IC50 [4, 12]: 0.01 µM
CC(=O)N[C@@H](Cc1ccc(F)cc1)[C@H](O)CN[C@H]1CC2(CCC2)Oc2c1cc(CC(C)(C)C)nc2NC1CCC1 [compound 497]		3300 nM		2.6 µM	172 µL/min/mg	0.1 µM	157 µL/min/mg	0.077 µM	
CCO[C@@H](C)C(=O)N[C@@H](Cc1ccc2c(c1)OCO2)[C@H](O)CN[C@H]1CC2(CCC2)Oc2ncc(CC(C)C)cc21 [compound 809]		200 nM		6.7 µM	117 µL/min/mg		33 µL/min/mg		IC50 [2, 11]: 0.513 µM; IC50 [4, 12]: 0.269 µM
C#Cc1cccc(C[C@H](NC(=O)COC)[C@H](O)CN[C@H]2CC3(CCC3)Oc3ncc(CC(C)(C)C(F)(F)F)cc32)c1 [compound 838]		100 nM		2 µM	54 µL/min/mg		34 µL/min/mg		IC50 [2, 11]: 0.028 µM; IC50 [4, 12]: 0.01 µM
